From paper PMC5218480 (PLoS ONE, 2017)

Tested on: MV-4-11 cells
Assay: Gene expression microarray analysis (Affymetrix PrimeView) and GSEA
Type: cell-based, human
Parameters: RFU PODN (11730768_x_at) / Fold change /veh PODN (11730768_x_at) / RFU LINC00158 (11744669_a_at) / Fold change /veh LINC00158 (11744669_a_at) / RFU DUSP10 (11751237_a_at) / Fold change /veh DUSP10 (11751237_a_at) / RFU ID3 (11757404_x_at) / Fold change /veh ID3 (11757404_x_at) / RFU PLEKHG5 (11737974_s_at) / Fold change /veh PLEKHG5 (11737974_s_at) / RFU LRRC4B (11730491_at) / Fold change /veh LRRC4B (11730491_at) / RFU GIMAP4 (11747438_a_at) / Fold change /veh GIMAP4 (11747438_a_at) / RFU KRT8 (11758183_x_at) / Fold change /veh KRT8 (11758183_x_at) / RFU CNN1 (11734310_a_at) / Fold change /veh CNN1 (11734310_a_at) / RFU VPS37D (11726825_at) / Fold change /veh VPS37D (11726825_at) / RFU C10orf10 (11716522_x_at) / Fold change /veh C10orf10 (11716522_x_at) / RFU KIR2DL2 /// KIR2DL4 /// KIR2DL5A /// KIR2DL5B /// KIR2DS1 /// KIR2DS2 /// KIR2DS3 /// KIR2DS4 /// KIR3DL3 /// KIR3DL3 /// KIR3DS1 (11738374_at) / Fold change /veh KIR2DL2 /// KIR2DL4 /// KIR2DL5A /// KIR2DL5B /// KIR2DS1 /// KIR2DS2 /// KIR2DS3 /// KIR2DS4 /// KIR3DL3 /// KIR3DL3 /// KIR3DS1 (11738374_at) / RFU C1QL1 (11718748_at) / Fold change /veh C1QL1 (11718748_at) / RFU TMPRSS4 (11747572_a_at) / Fold change /veh TMPRSS4 (11747572_a_at) / RFU HAMP (11756126_x_at) / Fold change /veh HAMP (11756126_x_at) / RFU RNFT2 (11725882_a_at) / Fold change /veh RNFT2 (11725882_a_at) / RFU NR4A2 (11747474_a_at) / Fold change /veh NR4A2 (11747474_a_at) / RFU ABCC12 (11746883_a_at) / Fold change /veh ABCC12 (11746883_a_at) / RFU TMEM136 (11760407_x_at) / Fold change /veh TMEM136 (11760407_x_at) / RFU CLDN22 /// WWC2 (11732394_at) / Fold change /veh CLDN22 /// WWC2 (11732394_at) / RFU HLA-DPB1 (11760878_x_at) / Fold change /veh HLA-DPB1 (11760878_x_at) / RFU SPINT1 (11716480_a_at) / Fold change /veh SPINT1 (11716480_a_at) / RFU GAP43 (11754022_s_at) / Fold change /veh GAP43 (11754022_s_at) / RFU A4GNT (11735810_at) / Fold change /veh A4GNT (11735810_at) / RFU PRB3 (11715151_x_at) / Fold change /veh PRB3 (11715151_x_at) / RFU TUBB4B (11761932_at) / Fold change /veh TUBB4B (11761932_at) / RFU CAPN14 (11732068_a_at) / Fold change /veh CAPN14 (11732068_a_at) / RFU TMCC2 (11721928_a_at) / Fold change /veh TMCC2 (11721928_a_at) / RFU IRGQ (11745062_a_at) / Fold change /veh IRGQ (11745062_a_at) / RFU FAM174B (11720279_a_at) / Fold change /veh FAM174B (11720279_a_at) / RFU TMPRSS4 (11748680_a_at) / Fold change /veh TMPRSS4 (11748680_a_at) / RFU FAM212B (11763350_a_at) / Fold change /veh FAM212B (11763350_a_at) / RFU PLEKHG5 (11743358_a_at) / Fold change /veh PLEKHG5 (11743358_a_at) / RFU ZSCAN30 (11745921_a_at) / Fold change /veh ZSCAN30 (11745921_a_at) / RFU CMKLR1 (11741424_a_at) / Fold change /veh CMKLR1 (11741424_a_at) / RFU LOC101060620 /// MAPK8IP1 (11723275_at) / Fold change /veh LOC101060620 /// MAPK8IP1 (11723275_at) / RFU SPTSSB (11747773_x_at) / Fold change /veh SPTSSB (11747773_x_at) / RFU PRSS12 (11739890_at) / Fold change /veh PRSS12 (11739890_at) / RFU BIN1 (11741810_x_at) / Fold change /veh BIN1 (11741810_x_at) / RFU WNT11 (11732464_a_at) / Fold change /veh WNT11 (11732464_a_at) / RFU C10orf10 (11716521_a_at) / Fold change /veh C10orf10 (11716521_a_at) / RFU C5orf56 (11738089_at) / Fold change /veh C5orf56 (11738089_at) / RFU CYB561 (11721691_x_at) / Fold change /veh CYB561 (11721691_x_at) / RFU ANKRD19P (11752326_a_at) / Fold change /veh ANKRD19P (11752326_a_at) / RFU OR2T12 /// OR2T33 /// OR2T8 (11738714_s_at) / Fold change /veh OR2T12 /// OR2T33 /// OR2T8 (11738714_s_at) / RFU VCAN (11748164_a_at) / Fold change /veh VCAN (11748164_a_at) / RFU JSRP1 (11732532_at) / Fold change /veh JSRP1 (11732532_at) / RFU KRTAP10-11 (11738290_x_at) / Fold change /veh KRTAP10-11 (11738290_x_at) / RFU MYO3A (11730013_a_at) / Fold change /veh MYO3A (11730013_a_at) / RFU EBF3 (11725865_a_at) / Fold change /veh EBF3 (11725865_a_at) / RFU CAMK2N1 (11719241_x_at) / Fold change /veh CAMK2N1 (11719241_x_at) / RFU C5orf56 (11738088_a_at) / Fold change /veh C5orf56 (11738088_a_at) / RFU OLFML3 (11715873_a_at) / Fold change /veh OLFML3 (11715873_a_at) / RFU LOC100653217 /// NTM (11731650_a_at) / Fold change /veh LOC100653217 /// NTM (11731650_a_at) / RFU MAPK11 (11762145_a_at) / Fold change /veh MAPK11 (11762145_a_at) / RFU FIZ1 (11724087_x_at) / Fold change /veh FIZ1 (11724087_x_at) / RFU OASL (11726364_x_at) / Fold change /veh OASL (11726364_x_at) / RFU SOX15 (11748057_x_at) / Fold change /veh SOX15 (11748057_x_at) / RFU CD79A (11719716_a_at) / Fold change /veh CD79A (11719716_a_at) / RFU HIST1H1D (11736915_at) / Fold change /veh HIST1H1D (11736915_at) / RFU CASKIN2 (11723855_a_at) / Fold change /veh CASKIN2 (11723855_a_at) / RFU LOC730098 (11760151_x_at) / Fold change /veh LOC730098 (11760151_x_at) / RFU OR4N2 (11742367_at) / Fold change /veh OR4N2 (11742367_at) / RFU PRRT2 (11749266_a_at) / Fold change /veh PRRT2 (11749266_a_at) / RFU SNX32 (11753110_a_at) / Fold change /veh SNX32 (11753110_a_at) / RFU CDHR5 (11726645_a_at) / Fold change /veh CDHR5 (11726645_a_at) / RFU RCAN1 (11760418_a_at) / Fold change /veh RCAN1 (11760418_a_at) / RFU FAM167A (11723789_a_at) / Fold change /veh FAM167A (11723789_a_at) / RFU FAM26E (11764081_at) / Fold change /veh FAM26E (11764081_at) / RFU ISYNA1 (11749810_s_at) / Fold change /veh ISYNA1 (11749810_s_at) / RFU ACY1 (11761880_at) / Fold change /veh ACY1 (11761880_at) / RFU 11764098_at / Fold change /veh 11764098_at / RFU SAMD14 (11745864_x_at) / Fold change /veh SAMD14 (11745864_x_at) / RFU NPB (11741838_a_at) / Fold change /veh NPB (11741838_a_at) / RFU TMPRSS6 (11731388_a_at) / Fold change /veh TMPRSS6 (11731388_a_at) / RFU KRTAP10-2 (11738614_at) / Fold change /veh KRTAP10-2 (11738614_at) / RFU ARHGAP8 /// PRR5-ARHGAP8 (11727945_x_at) / Fold change /veh ARHGAP8 /// PRR5-ARHGAP8 (11727945_x_at) / RFU KRTAP5-7 /// NADSYN1 (11734609_at) / Fold change /veh KRTAP5-7 /// NADSYN1 (11734609_at) / RFU RASL12 (11751679_a_at) / Fold change /veh RASL12 (11751679_a_at) / RFU CDKN2B (11736163_a_at) / Fold change /veh CDKN2B (11736163_a_at) / RFU PRF1 (11729649_at) / Fold change /veh PRF1 (11729649_at) / RFU, ZNF638 /// ZNF638-IT1 / Fold change vs veh, ZNF638 /// ZNF638-IT1 / RFU, PANK3 / Fold change vs veh, PANK3 / RFU, SH3YL1 / Fold change vs veh, SH3YL1 / RFU, ZEB2 / Fold change vs veh, ZEB2 / RFU, NRIP1 / Fold change vs veh, NRIP1 / RFU, PTTG1IP / Fold change vs veh, PTTG1IP / RFU, CAPN2 / Fold change vs veh, CAPN2 / RFU, MED14 / Fold change vs veh, MED14 / RFU, SNORA58 / Fold change vs veh, SNORA58 / RFU, C1orf63 / Fold change vs veh, C1orf63 / RFU, LRRFIP1 / Fold change vs veh, LRRFIP1 / RFU, NDUFAF7 / Fold change vs veh, NDUFAF7 / RFU, SLC12A2 / Fold change vs veh, SLC12A2 / RFU, IBTK / Fold change vs veh, IBTK / RFU, ESF1 / Fold change vs veh, ESF1 / Fold change vs veh, TMEM50B / RFU, TAOK1 / Fold change vs veh, TAOK1 / RFU, ACBD3 / Fold change vs veh, ACBD3 / RFU, TMA16 / Fold change vs veh, TMA16 / RFU, RWDD3 / Fold change vs veh, RWDD3 / RFU, BCAT1 / Fold change vs veh, BCAT1 / RFU, EDEM3 / Fold change vs veh, EDEM3 / RFU, TMEM33 / Fold change vs veh, TMEM33 / RFU, WDR75 / Fold change vs veh, WDR75 / RFU, AHCTF1 / Fold change vs veh, AHCTF1 / RFU, TFRC / Fold change vs veh, TFRC / RFU, ZDHHC17 / Fold change vs veh, ZDHHC17 / RFU, NOM1 / Fold change vs veh, NOM1 / RFU, ARL8B / Fold change vs veh, ARL8B / RFU, ZBTB11 / Fold change vs veh, ZBTB11 / RFU, TAMM41 / Fold change vs veh, TAMM41 / RFU, KIAA1704 /// LOC100996395 / Fold change vs veh, KIAA1704 /// LOC100996395 / RFU, ING1 / Fold change vs veh, ING1 / RFU, TRMT61B / Fold change vs veh, TRMT61B / RFU, FUBP3 / Fold change vs veh, FUBP3 / RFU, TP53 / Fold change vs veh, TP53 / RFU, TNKS2 / Fold change vs veh, TNKS2 / RFU, ZFP14 / Fold change vs veh, ZFP14 / RFU, ACTR2 / Fold change vs veh, ACTR2 / RFU, PPP3R1 / Fold change vs veh, PPP3R1 / RFU, PIK3R1 / Fold change vs veh, PIK3R1 / RFU, HNRNPA1 / Fold change vs veh, HNRNPA1 / RFU, RNF170 / Fold change vs veh, RNF170 / RFU, ZNF28 / Fold change vs veh, ZNF28 / RFU, RNGTT / Fold change vs veh, RNGTT / RFU, OGT / Fold change vs veh, OGT / RFU, BRD1 / Fold change vs veh, BRD1 / RFU, MARS / Fold change vs veh, MARS / RFU, ZNF655 / Fold change vs veh, ZNF655 / RFU, FAHD1 / Fold change vs veh, FAHD1 / RFU, BDP1 / Fold change vs veh, BDP1 / RFU, LRRCC1 / Fold change vs veh, LRRCC1 / RFU, ARID1A / Fold change vs veh, ARID1A / RFU, ZNF146 / Fold change vs veh, ZNF146 / RFU, ZNF330 / Fold change vs veh, ZNF330 / RFU, GPN3 / Fold change vs veh, GPN3 / RFU, C9orf123 / Fold change vs veh, C9orf123 / RFU, N4BP2L2 / Fold change vs veh, N4BP2L2 / RFU, ARFIP1 / Fold change vs veh, ARFIP1 / RFU, FAM179B / Fold change vs veh, FAM179B / RFU, BCL10 / Fold change vs veh, BCL10 / RFU, UHRF1BP1L / Fold change vs veh, UHRF1BP1L / RFU, BET1 / Fold change vs veh, BET1 / RFU, CNOT2 / Fold change vs veh, CNOT2 / RFU, ZNF268 / Fold change vs veh, ZNF268 / Fold change vs veh, ZNF507 / RFU, DGCR2 / Fold change vs veh, DGCR2 / RFU, WDSUB1 / Fold change vs veh, WDSUB1 / Fold change vs veh, HSP90B1 /// MIR3652 / RFU, ADSS / Fold change vs veh, ADSS / RFU, GK / Fold change vs veh, GK / RFU, ZNF148 / Fold change vs veh, ZNF148 / RFU, TAF9 / Fold change vs veh, TAF9 / RFU, SLC1A5 / Fold change vs veh, SLC1A5 / RFU, SLMO2 / Fold change vs veh, SLMO2 / RFU, ABCC4 / Fold change vs veh, ABCC4 / RFU, LOC101060439 /// RAP1B / Fold change vs veh, LOC101060439 /// RAP1B / RFU, RFX7 / Fold change vs veh, RFX7 / RFU, GTPBP10 / Fold change vs veh, GTPBP10 / RFU, CNEP1R1 / Fold change vs veh, CNEP1R1 / RFU, BIVM-ERCC5 /// ERCC5 / Fold change vs veh, BIVM-ERCC5 /// ERCC5 / RFU, ILF3 / Fold change vs veh, ILF3 / RFU 11762660_at / Fold change /veh 11762660_at / RFU VCAN (11757783_s_at) / Fold change /veh VCAN (11757783_s_at) / RFU DDX43 (11728927_at) / Fold change /veh DDX43 (11728927_at) / RFU KRT8 (11758188_x_at) / Fold change /veh KRT8 (11758188_x_at) / RFU NKD1 (11759106_at) / Fold change /veh NKD1 (11759106_at) / RFU SRD5A1 (11742802_a_at) / Fold change /veh SRD5A1 (11742802_a_at) / RFU TPSAB1 /// TPSB2 (11721975_s_at) / Fold change /veh TPSAB1 /// TPSB2 (11721975_s_at) / RFU GSTM3 (11746129_a_at) / Fold change /veh GSTM3 (11746129_a_at) / RFU IL23R (11737362_x_at) / Fold change /veh IL23R (11737362_x_at) / RFU TMEM51 (11727254_a_at) / Fold change /veh TMEM51 (11727254_a_at) / RFU PIWIL2 (11732686_x_at) / Fold change /veh PIWIL2 (11732686_x_at) / RFU ORM1 (11744905_x_at) / Fold change /veh ORM1 (11744905_x_at) / RFU CCDC152 (11743942_at) / Fold change /veh CCDC152 (11743942_at) / RFU ECM1 (11717891_a_at) / Fold change /veh ECM1 (11717891_a_at) / RFU IL23R (11748794_a_at) / Fold change /veh IL23R (11748794_a_at) / RFU TNFAIP8L3 (11732012_x_at) / Fold change /veh TNFAIP8L3 (11732012_x_at) / RFU MBOAT4 (11741988_at) / Fold change /veh MBOAT4 (11741988_at) / RFU 11764193_at / Fold change /veh 11764193_at / RFU TMEM53 (11763286_at) / Fold change /veh TMEM53 (11763286_at) / RFU MAGEB2 (11727129_at) / Fold change /veh MAGEB2 (11727129_at) / RFU TMEM200A (11744735_a_at) / Fold change /veh TMEM200A (11744735_a_at) / RFU CCDC152 (11751479_a_at) / Fold change /veh CCDC152 (11751479_a_at) / RFU FAM211A (11726209_a_at) / Fold change /veh FAM211A (11726209_a_at) / RFU RGS16 (11746705_a_at) / Fold change /veh RGS16 (11746705_a_at) / RFU VCAN (11755009_s_at) / Fold change /veh VCAN (11755009_s_at) / RFU RHOB (11743442_s_at) / Fold change /veh RHOB (11743442_s_at) / RFU RGS16 (11720943_a_at) / Fold change /veh RGS16 (11720943_a_at) / RFU RGS16 (11720944_at) / Fold change /veh RGS16 (11720944_at) / RFU, VPS4B / Fold change vs veh, VPS4B / RFU, CREB1 / Fold change vs veh, CREB1 / RFU, DNAJC13 / Fold change vs veh, DNAJC13 / RFU, GNAQ / Fold change vs veh, GNAQ / RFU, CDK5R1 / Fold change vs veh, CDK5R1 / RFU, ZRANB3 / Fold change vs veh, ZRANB3 / RFU, CUL4A / Fold change vs veh, CUL4A / RFU, CCNY / Fold change vs veh, CCNY / RFU, UFL1 / Fold change vs veh, UFL1 / RFU, COG3 / Fold change vs veh, COG3 / RFU, DIAPH2 / Fold change vs veh, DIAPH2 / RFU, SKA2 / Fold change vs veh, SKA2 / RFU, AFF3 / Fold change vs veh, AFF3 / RFU, LMF1 / Fold change vs veh, LMF1 / RFU, IPO11 / Fold change vs veh, IPO11 / RFU, DFFB / Fold change vs veh, DFFB / RFU, FOXP1 / Fold change vs veh, FOXP1 / RFU, CARD8 / Fold change vs veh, CARD8 / RFU, STRN3 / Fold change vs veh, STRN3 / RFU, ADK / Fold change vs veh, ADK / RFU, RASSF2 / Fold change vs veh, RASSF2 / RFU, WIPF1 / Fold change vs veh, WIPF1 / RFU, LARP1B / Fold change vs veh, LARP1B / RFU, RASA1 / Fold change vs veh, RASA1 / RFU, RB1 / Fold change vs veh, RB1 / RFU, PPFIA1 / Fold change vs veh, PPFIA1 / RFU, MAT2A / Fold change vs veh, MAT2A / RFU, CCT5 / Fold change vs veh, CCT5 / RFU, WDR92 / Fold change vs veh, WDR92 / RFU, CUX1 / Fold change vs veh, CUX1 / RFU, TTC7A / Fold change vs veh, TTC7A / RFU, TMEM135 / Fold change vs veh, TMEM135 / RFU, DEPTOR / Fold change vs veh, DEPTOR / RFU, CPM / Fold change vs veh, CPM / RFU, DNAJB6 / Fold change vs veh, DNAJB6 / RFU, CACNA2D3 / Fold change vs veh, CACNA2D3 / RFU, DTX4 / Fold change vs veh, DTX4 / RFU, TFCP2 / Fold change vs veh, TFCP2 / RFU, GMCL1 /// GMCL1P1 / Fold change vs veh, GMCL1 /// GMCL1P1 / RFU, AEBP2 / Fold change vs veh, AEBP2 / RFU, SNHG1 /// SNORD22 /// SNORD25 /// SNORD26 /// SNORD27 /// SNORD28 /// SNORD29 /// SNORD31 / Fold change vs veh, SNHG1 /// SNORD22 /// SNORD25 /// SNORD26 /// SNORD27 /// SNORD28 /// SNORD29 /// SNORD31 / Fold change (Aza/veh), C12orf56 (ProbeSet 11735607_a_at) / Fold change (ACY-1035/veh), C12orf56 (ProbeSet 11735607_a_at) / Fold change (Aza/veh), FGFR1OP (ProbeSet 11751329_s_at) / Fold change (ACY-1035/veh), FGFR1OP (ProbeSet 11751329_s_at) / Fold change (Aza/veh), VPS36 (ProbeSet 11739960_a_at) / Fold change (ACY-1035/veh), VPS36 (ProbeSet 11739960_a_at) / RFU SYPL1 (11715823_x_at) / Fold change /veh SYPL1 (11715823_x_at) / RFU IGFBP7 (11715501_s_at) / Fold change /veh IGFBP7 (11715501_s_at) / RFU REEP3 (11722064_at) / Fold change /veh REEP3 (11722064_at) / RFU IGLL1 (11728026_x_at) / Fold change /veh IGLL1 (11728026_x_at): dose or concentration left out as unconfirmed
Conditions: ProbeSet 11740528_a_at; LIST D

Nc1ccc(-c2cccs2)cc1NC(=O)c1ccc2c(c1)cc(C1CC1)n2CCN1CCOCC1 [ACY-1035]
Fold change vs veh, AFF3: 0.95
